{
  "source": "patent US10004225B2",
  "about": "“Wearable insect repelling patch” (S. C. Johnson & Son, Inc., priority 2005, dated 2018)",
  "key": {"mosquitoes [1]": {"system": "mosquitoes", "experiment": "Additional field tests with FIG. 4 type patches, wrist bands and ankle bands", "assay_type": "in vivo", "settings": "7.5 cm×7.5 cm patches, 10 mg each, two or four patches, one or two wrist bands, five to sixty minute monitoring, heavy mosquito populations", "method": "We then tried some additional field tests with respect to mosquitoes using FIG. 4 type patches. Patches were made be adhering a multi-layer non-woven cloth made of rayon, polyester, polypropylene, and polyethylene fibers 30 to a multi-laminate foil film 34 with strips of 3M double facing tape 32. The cloth was 7.5 cm×7.5 cm in top view, and the dosing included for each patch 10 mg of metofluthrin dissolved in 2.53 ml of acetone.\nWe then sealed the patches in towelette pouches for storage prior to use. When the patch was to be used, we opened the pouch by tearing it open, removed the patch, peeled off the multi-laminate foil, and attached the cloth/tape structure to the specified locations.\nWe tested the use of two patches, the use of four patches, the use of one or two wrist bands, and the use of one or two ankle bands. All achieved over 50% repellency throughout a five minute to sixty minute monitoring under conditions of heavy mosquito populations."}, "[2]": {"settings": "@ 25° C.; cited from earlier work"}, "mosquitoes [3]": {"system": "mosquitoes", "experiment": "Field test in southern Florida, one-minute biting count on lower leg of human test subjects wearing patches", "assay_type": "in vivo", "excerpt": "We also conducted some field tests of the present invention in southern Florida using patches 10 dosed with metofluthrin. Human test subjects and designated untreated control entered the test site, each test subject being separated by a minimum of 25 meters (approx. 75 feet). Shortly after all test subjects and an untreated control were set up in the test site, a 15 second ‘nuisance’ pre-count was taken by counting or best estimating the number of mosquitoes landing or touching the visual areas on the test suit.\nDirectly after the ‘nuisance’ count, a one-minute biting pre-count of a lower leg was taken. The pre-count began by having each subject roll up one pant leg to the knee then count the number of mosquitoes landing or biting on the exposed skin over a one minute period. Once a mosquito landed, the insect was pushed away (flicked, swatted or other) from the leg.\nAfter the precounts were made, each test subject attached insect repellent patches 10 to predetermined areas on the test suit. The location of the patches is described below.\nMosquito land or bite counts were then made as described above for the pre-counts, with counts taken every 5 minutes for the first 20 minutes. After the 20 minute count, the test subjects and controls moved locations, walking approximately 15 meters. This was followed by their immediately taking a 15-second nuisance and one-minute biting count. Additional counts were then made at 25 and 30 minutes at that new location. After the 30 minute counts, the test subjects and controls moved location again, walking approximately 15 meters. This is followed by their immediately taking a 15-second nuisance and the one-minute biting count. An additional count was then made again at 35 minutes. The test was concluded after the 35 minute count.\nThe patches 10 used in the test were treated with metofluthrin, the 103 cm^2 patches bearing 60 mg and the 51.6 cm^2 patches bearing about 30 mg of metofluthrin. The patch material was selected either from a substrate made of a nylon-type material or from a non-woven cloth made of rayon, polyester, polypropylene, and polyethylene fibers. No difference in performance between the two materials was detected.\nWhen four, 103 cm^2 patch samples were used, the patches were placed on the side of each shoulder and on the outwardly facing side of each knee. For the four, 51.6 cm^2 patch samples, the patches were placed on the side of each shoulder and on the top of the shoe. The 103 cm^2 patches were too big to place on the shoe, and therefore only the 51.6 cm^2 patches were placed there. For the two, 51.6 cm^2 patch testing, one patch was placed on one shoulder and another was placed on the outwardly facing side of the opposing knee.\nThe Average Percent Biting Repellency was calculated using the following formula:\nC2=control count at time corresponding with treatment count\nT1=precount for test area\nT2=test area count at designated time\nThe percent repellency was calculated by the following formula: […]"}},
  "data": [
    {"smiles": "CC=C[C@@H]1[C@@H](C(=O)OCc2c(F)c(F)c(COC)c(F)c2F)C1(C)C", "note": "(racemic) [metofluthrin, 2,3,5,6-tetrafluoro-4-methoxymethylbenzyl (EZ)-(1RS,3RS)-2,2-dimethyl-3-(prop-1-enyl)-cyclopropanecarboxylate]", "values": [
      {"measurement": "repellency", "setting": "mosquitoes [1]", "result": "over 50%"},
      {"measurement": "Vapor pressure", "setting": "[2]", "result": "3.4 × 10^−6 mmHg @"},
      {"measurement": "Percent Biting Repellency", "setting": "mosquitoes [3]; 2 patches (51.6 cm^2, about 30 mg each), 3 reps, 0 min", "result": 0, "unit": "%"},
      {"measurement": "Percent Biting Repellency", "setting": "mosquitoes [3]; 2 patches (51.6 cm^2, about 30 mg each), 3 reps, 5 min", "result": 42, "unit": "%"},
      {"measurement": "Percent Biting Repellency", "setting": "mosquitoes [3]; 2 patches (51.6 cm^2, about 30 mg each), 3 reps, 10 min", "result": 60, "unit": "%"},
      {"measurement": "Percent Biting Repellency", "setting": "mosquitoes [3]; 2 patches (51.6 cm^2, about 30 mg each), 3 reps, 15 min", "result": 90, "unit": "%"},
      {"measurement": "Percent Biting Repellency", "setting": "mosquitoes [3]; 2 patches (51.6 cm^2, about 30 mg each), 3 reps, 20 min", "result": 81, "unit": "%"},
      {"measurement": "Percent Biting Repellency", "setting": "mosquitoes [3]; 2 patches (51.6 cm^2, about 30 mg each), 3 reps, 21 min, immediately after moving approx. 15 meters", "result": 13, "unit": "%"},
      {"measurement": "Percent Biting Repellency", "setting": "mosquitoes [3]; 2 patches (51.6 cm^2, about 30 mg each), 3 reps, 25 min", "result": 82, "unit": "%"},
      {"measurement": "Percent Biting Repellency", "setting": "mosquitoes [3]; 2 patches (51.6 cm^2, about 30 mg each), 3 reps, 30 min", "result": 81, "unit": "%"},
      {"measurement": "Percent Biting Repellency", "setting": "mosquitoes [3]; 2 patches (51.6 cm^2, about 30 mg each), 3 reps, 31 min, immediately after moving approx. 15 meters", "result": 44, "unit": "%"},
      {"measurement": "Percent Biting Repellency", "setting": "mosquitoes [3]; 2 patches (51.6 cm^2, about 30 mg each), 3 reps, 35 min", "result": 73, "unit": "%"},
      {"measurement": "Percent Biting Repellency", "setting": "mosquitoes [3]; 3 patches (103 cm^2, 60 mg each), 2 reps, 0 min", "result": 0, "unit": "%"},
      {"measurement": "Percent Biting Repellency", "setting": "mosquitoes [3]; 3 patches (103 cm^2, 60 mg each), 2 reps, 5 min", "result": 75, "unit": "%"},
      {"measurement": "Percent Biting Repellency", "setting": "mosquitoes [3]; 3 patches (103 cm^2, 60 mg each), 2 reps, 10 min", "result": 100, "unit": "%"},
      {"measurement": "Percent Biting Repellency", "setting": "mosquitoes [3]; 3 patches (103 cm^2, 60 mg each), 2 reps, 15 min", "result": 100, "unit": "%"},
      {"measurement": "Percent Biting Repellency", "setting": "mosquitoes [3]; 3 patches (103 cm^2, 60 mg each), 2 reps, 20 min", "result": 100, "unit": "%"},
      {"measurement": "Percent Biting Repellency", "setting": "mosquitoes [3]; 3 patches (103 cm^2, 60 mg each), 2 reps, 21 min, immediately after moving approx. 15 meters", "result": 16, "unit": "%"},
      {"measurement": "Percent Biting Repellency", "setting": "mosquitoes [3]; 3 patches (103 cm^2, 60 mg each), 2 reps, 25 min", "result": 84, "unit": "%"},
      {"measurement": "Percent Biting Repellency", "setting": "mosquitoes [3]; 3 patches (103 cm^2, 60 mg each), 2 reps, 30 min", "result": 84, "unit": "%"},
      {"measurement": "Percent Biting Repellency", "setting": "mosquitoes [3]; 3 patches (103 cm^2, 60 mg each), 2 reps, 31 min, immediately after moving approx. 15 meters", "result": 64, "unit": "%"},
      {"measurement": "Percent Biting Repellency", "setting": "mosquitoes [3]; 3 patches (103 cm^2, 60 mg each), 2 reps, 35 min", "result": 100, "unit": "%"},
      {"measurement": "Percent Biting Repellency", "setting": "mosquitoes [3]; 4 patches (103 cm^2), 2 reps, 0 min", "result": 0, "unit": "%"},
      {"measurement": "Percent Biting Repellency", "setting": "mosquitoes [3]; 4 patches (103 cm^2), 2 reps, 5 min", "result": 96, "unit": "%"},
      {"measurement": "Percent Biting Repellency", "setting": "mosquitoes [3]; 4 patches (103 cm^2), 2 reps, 10 min", "result": 100, "unit": "%"},
      {"measurement": "Percent Biting Repellency", "setting": "mosquitoes [3]; 4 patches (103 cm^2), 2 reps, 15 min", "result": 100, "unit": "%"},
      {"measurement": "Percent Biting Repellency", "setting": "mosquitoes [3]; 4 patches (103 cm^2), 2 reps, 20 min", "result": 88, "unit": "%"},
      {"measurement": "Percent Biting Repellency", "setting": "mosquitoes [3]; 4 patches (103 cm^2), 2 reps, 21 min, immediately after moving approx. 15 meters", "result": 33, "unit": "%"},
      {"measurement": "Percent Biting Repellency", "setting": "mosquitoes [3]; 4 patches (103 cm^2), 2 reps, 25 min", "result": 50, "unit": "%"},
      {"measurement": "Percent Biting Repellency", "setting": "mosquitoes [3]; 4 patches (103 cm^2), 2 reps, 30 min", "result": 73, "unit": "%"},
      {"measurement": "Percent Biting Repellency", "setting": "mosquitoes [3]; 4 patches (103 cm^2), 2 reps, 31 min, immediately after moving approx. 15 meters", "result": 22, "unit": "%"},
      {"measurement": "Percent Biting Repellency", "setting": "mosquitoes [3]; 4 patches (103 cm^2), 2 reps, 35 min", "result": 96, "unit": "%"},
      {"measurement": "Percent Biting Repellency", "setting": "mosquitoes [3]; 4 patches (103 cm^2, 60 mg each), 1 rep, 0 min", "result": 0, "unit": "%"},
      {"measurement": "Percent Biting Repellency", "setting": "mosquitoes [3]; 4 patches (103 cm^2, 60 mg each), 1 rep, 5 min", "result": 85, "unit": "%"},
      {"measurement": "Percent Biting Repellency", "setting": "mosquitoes [3]; 4 patches (103 cm^2, 60 mg each), 1 rep, 10 min", "result": 94, "unit": "%"},
      {"measurement": "Percent Biting Repellency", "setting": "mosquitoes [3]; 4 patches (103 cm^2, 60 mg each), 1 rep, 15 min", "result": 100, "unit": "%"},
      {"measurement": "Percent Biting Repellency", "setting": "mosquitoes [3]; 4 patches (103 cm^2, 60 mg each), 1 rep, 20 min", "result": 92, "unit": "%"},
      {"measurement": "Percent Biting Repellency", "setting": "mosquitoes [3]; 4 patches (103 cm^2, 60 mg each), 1 rep, 21 min, immediately after moving approx. 15 meters", "result": 85, "unit": "%"},
      {"measurement": "Percent Biting Repellency", "setting": "mosquitoes [3]; 4 patches (103 cm^2, 60 mg each), 1 rep, 25 min", "result": 81, "unit": "%"},
      {"measurement": "Percent Biting Repellency", "setting": "mosquitoes [3]; 4 patches (103 cm^2, 60 mg each), 1 rep, 30 min", "result": 100, "unit": "%"},
      {"measurement": "Percent Biting Repellency", "setting": "mosquitoes [3]; 4 patches (103 cm^2, 60 mg each), 1 rep, 31 min, immediately after moving approx. 15 meters", "result": 61, "unit": "%"},
      {"measurement": "Percent Biting Repellency", "setting": "mosquitoes [3]; 4 patches (103 cm^2, 60 mg each), 1 rep, 35 min", "result": 94, "unit": "%"},
      {"measurement": "personal area repellency in field test (result in words)", "setting": "mosquitoes [3]; patch sizes, dosages and locations of Example 3, even after user moved to a new location", "result": "can successfully provide personal area repellency within a very brief time"}
    ]}
  ]
}
